Reference: patent publication EP0970046B1, “N-HYDROXY-2-(ALKYL, ARYL, OR HETEROARYL SULFANYL, SULFINYL OR SULFONYL)-3-SUBSTITUTED ALKYL, ARYL OR HETEROARYLAMIDES AS MATRIX METALLOPROTEINASE INHIBITORS” (Wyeth Holdings Corporation, priority 1997, dated 1998)
Like-named read-outs stand apart in the source and are kept apart here.

Key:
Type in all cases: biochemical
MMP 9 = molecular target: T1, MMP 9 (Homo sapiens, UniProt P14780); experiment: In Vitro Gelatinase Assay; conditions: human neutrophil gelatinase B; for IC50: read-out: MMP 9 IC 50; for inhibition at 1 µM: read-out: MMP 9 % inhibition at 1 micromolar, 1 micromolar
T1 construct: from tissue; host or cells: human neutrophils
T1 sequence (P14780 94-707): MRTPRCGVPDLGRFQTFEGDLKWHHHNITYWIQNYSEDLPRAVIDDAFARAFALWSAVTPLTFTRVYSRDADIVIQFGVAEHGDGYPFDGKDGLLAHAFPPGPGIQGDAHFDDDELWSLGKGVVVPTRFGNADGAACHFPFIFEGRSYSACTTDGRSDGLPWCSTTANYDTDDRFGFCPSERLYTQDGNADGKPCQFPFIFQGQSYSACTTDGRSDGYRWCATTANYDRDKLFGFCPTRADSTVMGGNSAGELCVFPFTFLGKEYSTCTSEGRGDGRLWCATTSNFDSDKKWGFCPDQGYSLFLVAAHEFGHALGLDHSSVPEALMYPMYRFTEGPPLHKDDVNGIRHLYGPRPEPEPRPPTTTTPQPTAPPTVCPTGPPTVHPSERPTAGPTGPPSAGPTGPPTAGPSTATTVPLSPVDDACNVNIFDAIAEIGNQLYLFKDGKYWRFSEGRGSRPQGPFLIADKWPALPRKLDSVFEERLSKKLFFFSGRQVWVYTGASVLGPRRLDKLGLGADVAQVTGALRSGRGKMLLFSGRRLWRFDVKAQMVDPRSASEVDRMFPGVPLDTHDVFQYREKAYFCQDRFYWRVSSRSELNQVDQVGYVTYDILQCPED
Experimental: The assay is based on the cleavage of the thiopeptide substrate ((Ac-Pro-Leu-Gly(2 mercapto-4 methyl-pentanoyl)-Leu-Gly-OEt), Bachem Bioscience) by the enzyme, gelatinase, releasing the substrate product which reacts colorimetrically with DTNB ((5,5'-dithio-bis(2-nitro-benzoic acid)). The enzyme activity is measured by the rate of the color increase. The thiopeptide substrate is made up fresh as a 20 mM stock in 100% DMSO and the DTNB is dissolved in 100% DMSO as a 100 mM stock and stored in dark at room temperature. Both the substrate and DTNB are diluted together to 1 mM with substrate buffer (50 mM HEPES pH 7.5, 5 mM CaCl2) before use. […] The increase in OD405 is plotted and the slope of the line is calculated which represents the reaction rate. The linearity of the reaction rate is confirmed (r^2 >0.85). The mean (x ± sem) of the control rate is calculated and compared for statistical significance (p <0.05) with drug-treated rates using Dunnett's multiple comparison test.

MMP 1 = molecular target: T2, MMP 1 (Homo sapiens, UniProt P03956); experiment: In Vitro Collagenase Assay; conditions: for inhibition at 1 µM: read-out: MMP 1 % inhibition at 1 micromolar, 1 micromolar
T2 construct: human recombinant fibroblast collagenase (truncated, mw= 18,828, WAR, Radnor)
T2 sequence (P03956 100-269 limits assumed): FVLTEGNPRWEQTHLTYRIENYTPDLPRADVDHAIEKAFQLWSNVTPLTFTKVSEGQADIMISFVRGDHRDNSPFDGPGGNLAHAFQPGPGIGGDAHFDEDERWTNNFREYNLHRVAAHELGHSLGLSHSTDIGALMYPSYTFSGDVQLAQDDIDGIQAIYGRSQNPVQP
Experimental: The assay is based on the cleavage of a peptide substrate ((Dnp-Pro-Cha-Gly-Cys(Me)-His-Ala-Lys(NMa)-NH2), Peptide International, Inc.) by collagenase releasing the fluorescent NMa group which is quantitated on the fluorometer. Dnp quenches the NMa fluorescence in the intact substrate. […] Substrate is dissolved in methanol and stored frozen in 1 mM aliquots. […] For the assay, substrate is dissolved in HCBC buffer to a final concentration of 10 µM and collagenase to a final concentration of 5 nM. Compounds are dissolved in methanol, DMSO, or HCBC. The methanol and DMSO are diluted in HCBC to < 1.0%. Compounds are added to the 96 well plate containing enzyme and the reaction is started by the addition of substrate.
The slope of the line is calculated and represents the reaction rate.
The linearity of the reaction rate is confirmed (r^2 >0.85). The mean (x ± sem) of the control rate is calculated and compared for statistical significance (p <0.05) with drug-treated rates using Dunnett's multiple comparison test.

MMP 13 = MMP 13 (Homo sapiens, UniProt P45452); experiment: MMP 13 inhibition (IC50 / manual assay; method not described); conditions: for IC50: read-out: MMP 13 IC 50; for inhibition at 1 µM: read-out: MMP 13 % inhibition at 1 micromolar
TACE = molecular target: T3, TACE (Homo sapiens, UniProt P78536); experiment: Procedure for Measuring TACE Inhibition; conditions: for inhibition at 1 µM: read-out: TACE % inhibition at 1 micromolar
T3 construct: purchased Immunex
T3 sequence (P78536 215-824): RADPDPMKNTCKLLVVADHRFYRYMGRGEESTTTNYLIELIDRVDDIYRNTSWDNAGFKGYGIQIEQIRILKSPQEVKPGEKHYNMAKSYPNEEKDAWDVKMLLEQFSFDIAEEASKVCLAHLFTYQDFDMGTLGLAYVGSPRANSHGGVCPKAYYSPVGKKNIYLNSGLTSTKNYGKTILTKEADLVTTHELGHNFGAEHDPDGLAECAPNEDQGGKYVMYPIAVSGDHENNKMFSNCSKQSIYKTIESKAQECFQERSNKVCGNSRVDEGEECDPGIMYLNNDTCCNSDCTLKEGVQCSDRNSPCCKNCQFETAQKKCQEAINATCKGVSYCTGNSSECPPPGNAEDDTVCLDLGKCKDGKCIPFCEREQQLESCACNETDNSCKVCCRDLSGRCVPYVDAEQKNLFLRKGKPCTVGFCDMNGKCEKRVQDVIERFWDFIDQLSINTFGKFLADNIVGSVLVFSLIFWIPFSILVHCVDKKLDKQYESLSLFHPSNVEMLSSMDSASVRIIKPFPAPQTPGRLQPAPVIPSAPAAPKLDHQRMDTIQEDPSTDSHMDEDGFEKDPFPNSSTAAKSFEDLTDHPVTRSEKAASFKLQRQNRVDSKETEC
In short: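 Single-concentration screen: test compound at 1 µM final, 10-min room-temperature preincubation with 1 µg/mL protease in Tris pH 7.4 buffer containing glycerol. Initial rate from linear fluorescence increase (340/420 nm) over 10 min after adding 100 µM peptidyl substrate; significance versus control rate by Dunnett's test.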

[1] = human recombinant fibroblast collagenase, read-out: MMP 1 IC 50
[2] = human recombinant fibroblast collagenase

Question: What does the source list for COc1ccc(S(=O)(=O)C2(C(=O)NO)CCN(C(C)C)CC2)cc1 [Example 96, 1-Isopropyl-4-(4-methoxy-benzenesulfonyl)-piperidine-4-carboxylic acid hydroxyamide]?
Answer: IC50 (MMP 9): 374 nM; IC50 (MMP 1; [1]): 4440 nM; IC50 (MMP 13): 33.8 nM

Question: Which results are given for COc1ccc(S(=O)(=O)C2(C(=O)NO)CCN(CC=C(C)C)CC2)cc1 [Example 89, 4-(4-methoxy-benzene-sulfonyl)-1-(3-methyl-but-2-enyl)piperidine-4-carboxylic acid hydroxamide]?
Answer: inhibition at 1 µM (TACE): 49%; IC50 (MMP 9): 38.6 nM; IC50 (MMP 1; [1]): 1390 nM; IC50 (MMP 13): 7 nM

Question: Which results are given for CCN(CC)CCOc1cccc(CC(C)(C(=O)NO)S(=O)(=O)c2ccc(OC)cc2)c1 (stereo not drawn) [Example 29, N-Hydroxy-2-(4-methoxy-benzenesulfonyl)-2-methyl-3-[3-(2-N,N-diethylamino-ethoxy)-phenyl]-propionamide]?
Answer: TACE % inhibition at 1 micromolar (TACE; 1 micromolar): 41%; IC50 (MMP 9): 4.3 nM; IC50 (MMP 1; [1]): 297 nM; IC50 (MMP 13): 3.6 nM

Question: Which results are given for COc1ccc([S+]([O-])C(C(=O)NO)C(C)C)cc1 (stereo not drawn) [Example 7, N-Hydroxy-2-(4-methoxy-benzenesulfinyl)-3-methyl-butyramide]?
Answer: inhibition at 1 µM (TACE): 33%; IC50 (MMP 9): 72.9 nM; IC50 (MMP 1; [1]): 844 nM; IC50 (MMP 13): 42.1 nM

Question: How did the inhibition at 1 µM (TACE) turn out when CC#CCC(CC#CC)(C(=O)NO)S(=O)(=O)c1ccc(OC)cc1 [Example 72, 2-(4-Methoxy-benzenesulfonyl)-2-but-2-ynyl-hex-4-ynoic acid hydroxyamide] was run?
Answer: 51.6%

Question: And the IC50 (MMP 9)?
Answer: 11 nM

Question: And the IC50 (MMP 1; [1])?
Answer: 117 nM

Question: And the IC50 (MMP 13)?
Answer: 1 nM

Question: COc1ccc(S(=O)(=O)C2(C(=O)NO)CCN(Cc3ccc(OCCN4CCCCC4)cc3)CC2)cc1 [Example 109, 4-(4-Methoxy-benzenesulfonyl)-1-[4-(2-piperidin-1-yl-ethoxy)-benzyl]-piperidine-4-carboxylic acid hydroxyamide] was tested. Which IC50 (TACE; read-out: TACE IC 50) did it give?
Answer: 386 nM

Question: And the IC50 (MMP 9)?
Answer: 2.7 nM

Question: What about the IC50 (MMP 1) of the same compound?
Answer: 393 nM

Question: What about the IC50 (MMP 13) of the same compound?
Answer: 2.5 nM

Question: How did the inhibition at 1 µM (TACE) turn out when COc1ccc(S(=O)(=O)C2(C(=O)NO)CCN(CCCOc3ccccc3)CC2)cc1 [Example 105, 4-(4-Methoxy-benzenesulfonyl)-1-(3-phenoxy-propyl)-piperidine-4-carboxylic acid hydroxyamide] was run?
Answer: 50.2%

Question: And the IC50 (MMP 9)?
Answer: 44.2 nM

Question: What about the IC50 (MMP 1; [1]) of the same compound?
Answer: 1210 nM

Question: What about the IC50 (MMP 13) of the same compound?
Answer: 4.1 nM

Question: For COc1ccc(S(=O)(=O)C(C)(Cc2ccc(Br)cc2)C(=O)NO)cc1 (stereo not drawn) [Example 51, 3-(4-Bromo-phenyl)-N-hydroxy-2-(4-methoxy-benzenesulfonyl)-2-methyl-propionamide], which inhibition at 1 µM (TACE) is on record?
Answer: 48.1%

Question: What about the IC50 (MMP 9) of the same compound?
Answer: 10.4 nM

Question: And the IC50 (MMP 1; [1])?
Answer: 178 nM

Question: What about the IC50 (MMP 13) of the same compound?
Answer: 13.1 nM

Question: What does the source list for CCCC(Cc1ccc(OCCN2CCCCCC2)cc1)(C(=O)NO)S(=O)(=O)c1ccc(OC)cc1 (stereo not drawn) [Example 19, 2-[4-(2-Azepan-1-yl-ethoxy)-benzyl]-2-(4-methoxy-benzenesulfonyl)-pentanoic acid hydroxyamide]?
Answer: inhibition at 1 µM (TACE): 33.1%; IC50 (MMP 9): 95.8 nM; IC50 (MMP 1; [1]): 446 nM; IC50 (MMP 13): 4.8 nM

Question: Which IC50 (MMP 9) does the source give for CCCCC(Cc1ccc(OCCN(CC)CC)cc1)(C(=O)NO)S(=O)(=O)c1ccc(OC)cc1 (stereo not drawn) [Example 27, 2-[4-(2-Diethylamino-ethoxy)-benzyl]-2-(4-methoxy-benzenesulfonyl)-hexanoic acid hydroxyamide] here?
Answer: 106 nM

Question: And the IC50 (MMP 1; [1])?
Answer: 629 nM

Question: What about the IC50 (MMP 13) of the same compound?
Answer: 30.1 nM

Question: With COc1ccc(S(=O)(=O)C(CCC(C)C)(Cc2cccnc2)C(=O)NO)cc1 (stereo not drawn) [Example 69, 2-(4-Methoxy-benzenesulfonyl)-5-methyl-2-pyridin-3-ylmethyl-hexanoic acid hydroxyamide] as the compound, how does the inhibition at 1 µM (TACE) read?
Answer: 41.3%

Question: And the IC50 (MMP 1; [1])?
Answer: 575 nM

Question: And the IC50 (MMP 13)?
Answer: 90 nM

Question: What does the source list for CC#CCC(Cc1cccnc1)(C(=O)NO)S(=O)(=O)c1ccc(F)cc1 (stereo not drawn) [Example 76, 2-(4-Fluoro-benzenesulfonyl)-2-pyridin-3-ylmethyl-hex-4-ynoic acid hydroxyamide]?
Answer: IC50 (MMP 1; [1]): 805 nM; IC50 (MMP 13): 500 nM

Question: With COc1ccc(S(=O)(=O)C(CC=C(C)C)(Cc2ccc(OCCN3CCOCC3)cc2)C(=O)NO)cc1 (stereo not drawn) [Example 24, 2-(4-Methoxy-benzenesulfonyl)-5-methyl-2-[4-(2-morpholin-4-yl-ethoxy)-benzyl]-hex-4-enoic acid hydroxyamide] as the compound, how does the IC50 (MMP 9) read?
Answer: 20.9 nM

Question: What about the IC50 (MMP 1; [1]) of the same compound?
Answer: 413 nM

Question: What about the IC50 (MMP 13) of the same compound?
Answer: 31.3 nM

Question: How did the IC50 (MMP 9) turn out when COc1ccc(S(=O)(=O)C(C/C=C(\C)CCC=C(C)C)(Cc2ccc(OCCN3CCOCC3)cc2)C(=O)NO)cc1 (stereo not drawn) [Example 26, (4E)-2-(4-Methoxy-benzenesulfonyl)-5,9-dimethyl-2-[4-(2-morpholin-4-yl-ethoxy) - benzyl]-deca-4,8-dienoic acid hydroxyamide] was run?
Answer: 6.3 nM

Question: And the IC50 (MMP 1; [1])?
Answer: 305 nM

Question: And the IC50 (MMP 13)?
Answer: 3.2 nM

Question: CCCCCCC(Sc1nccn1C)C(=O)NO (stereo not drawn) [Example 39, 2-(1-methyl-1H-imidazol-2-ylsulfanyl)-octanoic acid hydroxyamide] was tested. Which inhibition at 1 µM (MMP 9) did it give?
Answer: 35.2%

Question: What about the inhibition at 1 µM (MMP 1; [2]) of the same compound?
Answer: 29.4%

Question: What about the inhibition at 1 µM (MMP 13) of the same compound?
Answer: 26.6%

Question: Which inhibition at 1 µM (MMP 9) does the source give for CCCCCCC(Sc1ccc(OC)cc1)C(=O)NO (stereo not drawn) [Example 37, 2-(4-Methoxy-benzenesulfanyl)-octanoic acid hydroxyamide] here?
Answer: 31.6%

Question: And the inhibition at 1 µM (MMP 1; [2])?
Answer: 9%

Question: What about the inhibition at 1 µM (MMP 13) of the same compound?
Answer: 14.3%

Question: How did the IC50 (MMP 1; [1]) turn out when CCCCCC#CCC(Cc1cccnc1)(C(=O)NO)S(=O)(=O)c1ccc(F)cc1 (stereo not drawn) [Example 77, 2-(4-Fluoro-benzenesulfonyl)-2-pyridin-3-ylmethyl-dec-4-ynoic acid hydroxyamide] was run?
Answer: 206 nM

Question: What about the IC50 (MMP 13) of the same compound?
Answer: 170 nM

Question: Which results are given for CC(C(=O)O)S(=O)(=O)CCCCCCCCS(=O)(=O)C(C)C(=O)NO (stereo not drawn) [Example 49, 2-[8-(1-carboxy-ethanesulfonyl)-octane-1-sulfonyl]-propionic acid hydroxyamide]?
Answer: inhibition at 1 µM (MMP 9): 23.7%; inhibition at 1 µM (MMP 1; [2]): 10.1%; inhibition at 1 µM (MMP 13): 54.6%

Question: With COc1ccc(SC(C)(CC=C(C)C)C(=O)NO)cc1 (stereo not drawn) [Example 3, 2-(4-Methoxy-phenylsulfanyl)-2,5-dimethyl-hex-4-enoic acid hydroxyamide] as the compound, how does the inhibition at 1 µM (TACE) read?
Answer: 27.4%

Question: What about the IC50 (MMP 9) of the same compound?
Answer: 309 nM

Question: And the IC50 (MMP 13)?
Answer: 169 nM

Question: Which results are given for CCN(CC)CCOc1ccc(CC(C)(C(=O)NO)S(=O)(=O)c2ccc(-c3ccco3)cc2)cc1 (stereo not drawn) [Example 32, 3-[4-(2-Diethylamino-ethoxy)-phenyl]-2-(4-furan-2-yl-benzenesulfonyl)-N-hydroxy-2-methyl-propionamide]?
Answer: IC50 (MMP 9): 3.7 nM; IC50 (MMP 1; [1]): 13.7 nM; IC50 (MMP 13): 1 nM

Question: What does the source list for COc1ccc(SC(C)(Cc2ccccc2)C(=O)NO)cc1 (stereo not drawn) [Example 1, N-Hydroxy-2-(4-methoxy-phenylsulfanyl)-2-methyl-3-phenyl-propionamide]?
Answer: inhibition at 1 µM (TACE): 31.6%; IC50 (MMP 9): 560 nM; IC50 (MMP 13): 193 nM

Question: CCCC(Cc1ccc(OCCN2CCOCC2)cc1)(C(=O)NO)S(=O)(=O)c1ccc(OC)cc1 (stereo not drawn) [Example 35, 2-(4-Methoxy-benzenesulfonyl)-2-[4-(2-morpholin-4-yl-ethoxy)-benzyl]-pentanoic acid hydroxyamide] was tested. Which IC50 (MMP 9) did it give?
Answer: 234 nM

Question: And the IC50 (MMP 1; [1])?
Answer: 456 nM

Question: What about the IC50 (MMP 13) of the same compound?
Answer: 48.2 nM

Question: How did the IC50 (MMP 9) turn out when CCCCC[C@H](C(=O)NO)[S@+]([O-])c1ccc(OC)cc1 (stereo in doubt) [Example 81a, 2R*-(4-methoxy-phenyl-S*- sulfinyl)-heptanoic acid hydroxyamide] was run?
Answer: 231 nM

Question: What about the IC50 (MMP 1; [1]) of the same compound?
Answer: 2040 nM

Question: What about the IC50 (MMP 13) of the same compound?
Answer: 43.9 nM

Question: Which results are given for COc1ccc(S(=O)(=O)C2(C(=O)NO)CCN(C(C)(C)C)CC2)cc1 [Example 92, 1-Tert-butyl-4-(4-methoxy-benzenesulfonyl)-piperidine-4-carboxylic acid hydroxyamide]?
Answer: IC50 (MMP 9): 649 nM; inhibition at 1 µM (MMP 1; [2]): 59.6%; IC50 (MMP 13): 148 nM
